# Assay results taken from US8673951B2, “Isoxazoline-substituted benzamide compound and pesticide” (priority 2005, dated 2014).
# Tests used:
# [1] = test system: cabbage moth (Plutella xylostella); experiment: Insecticidal test against cabbage moth (Test Example 1); format: in vivo; conditions: foliar, 144 h, read-out: insecticidal rate (rate of dead insects)
# [2] = test system: common cutworm (Spodoptera litura); experiment: Insecticidal test against common cutworm (Test Example 2); format: in vivo; conditions: in Brassica oleracea, foliar, 144 h, read-out: insecticidal rate (rate of dead insects)
# Description: A 10% emulsifiable concentrate (depending on the compounds, 10% wettable powder was applied for the test) of the compound of the present invention was diluted with water […] To the chemical solution was dipped leaves of cabbage for about 10 seconds, and after air-drying, they were placed in a laboratory dish, then 5-common cutworm (Spodoptera litura) in the stage of second instar larva per the dish were released therein, and the dish was covered with a lid and contained at a thermostat chamber at 25° C. […] Incidentally, the test was carried out with two districts.
smiles,measurement,setting,value
"CCO/N=C\NC(=O)c1ccc(C2=NOC(c3cc(Cl)cc(Cl)c3)(C(F)(F)F)C2)cc1OC(F)F (stereo not drawn) [6-023, (Z)-4-[5-(3,5-Dichlorophenyl)-5-trifluoromethyl-4,5-dihydroisoxazole-3-yl]-2-difluoromethoxy-N-(ethoxyiminomethyl)benzoic acid amide]",pest or weed control at 100 ppm,[1],≥ 80%
same,pest or weed control at 100 ppm,[2],≥ 80%
"COC(=O)N(COCC(F)(F)F)C(=O)c1ccc(C2=NOC(c3cc(Cl)cc(Cl)c3)(C(F)(F)F)C2)cc1C (stereo not drawn) [3-032, Methyl N-[4-[5-(3,5-dichlorophenyl)-5-trifluoromethyl-4,5-dihydro-isoxazole-3-yl]-2-methylbenzoyl]-N-(2,2,2-trifluoroethoxymethyl)carbamate]",pest or weed control at 10 ppm,[1],≥ 80%
same,pest or weed control at 10 ppm,[2],≥ 80%
"Cc1cc(C2=NOC(c3cc(Cl)cc(Cl)c3)(C(F)(F)F)C2)ccc1C(=O)NC(N)=O (stereo not drawn) [4-002, N-Carbamoyl-4-[5-(3,5-dichlorophenyl)-5-trifluoromethyl-4,5-dihydro-isoxazole-3-yl]-2-methyl benzoic acid amide]",pest or weed control at 100 ppm,[1],≥ 80%
same,pest or weed control at 100 ppm,[2],≥ 80%
"COC(=O)N(C(=O)c1ccc(C2=NOC(c3cc(Cl)cc(Cl)c3)(C(F)(F)F)C2)cc1C)c1ccc(Cl)cn1 (stereo not drawn) [5-060, Methyl N-(5-chloro-2-pyridyl)-N-[4-[5-(3,5-dichlorophenyl)-5-trifluoromethyl-4,5-dihydro-isoxazole-3-yl]-2-methylbenzoyl]carbamate]",pest or weed control at 100 ppm,[1],≥ 80%
same,pest or weed control at 100 ppm,[2],≥ 80%
"COC(=O)NC(=O)c1ccc(C2=NOC(c3cc(Cl)c(Cl)c(Cl)c3)(C(F)(F)F)C2)cc1C (stereo not drawn) [2-026, Methyl N-[2-methyl-4-[5-(3,4,5-trichlorophenyl)-5-trifluoromethyl-4,5-dihydroisoxazole-3-yl]benzoyl]carbamate]",pest or weed control at 10 ppm,[1],≥ 80%
same,pest or weed control at 10 ppm,[2],≥ 80%
"CCc1cc(C2=NOC(c3cc(Cl)cc(Cl)c3)(C(F)(F)F)C2)ccc1C(=O)N/C=N\OC (stereo not drawn) [6-020, (Z)-4-[5-(3,5-Dichlorophenyl)-5-trifluoromethyl-4,5-dihydroisoxazole-3-yl]-2-ethyl-N-(methoxyiminomethyl)benzoic acid amide]",pest or weed control at 10 ppm,[1],≥ 80%
same,pest or weed control at 10 ppm,[2],≥ 80%
"CC(=O)N(C(=O)c1ccc(C2=NOC(c3cc(Cl)cc(Cl)c3)(C(F)(F)F)C2)cc1C)n1cccn1 (stereo not drawn) [5-044, N-Acetyl-4-[5-(3,5-dichlorophenyl)-5-trifluoromethyl-4,5-dihydroisoxazole-3-yl]-2-methyl-N-(1-pyrazolyl)benzoic acid amide]",pest or weed control at 100 ppm,[1],≥ 80%
same,pest or weed control at 100 ppm,[2],≥ 80%
"Cc1cc(C2=NOC(c3cc(Cl)cc(Cl)c3)(C(F)(F)F)C2)ccc1C(=O)N(C)c1ncc(C#N)cn1 (stereo not drawn) [5-171, N-(5-Cyano-2-pyrimidinyl)-4-[5-(3,5-dichlorophenyl)-5-trifluoromethyl-4,5-dihydroisoxazole-3-yl]-N-methyl-2-methyl benzoic acid amide]",pest or weed control at 10 ppm,[1],≥ 80%
same,pest or weed control at 10 ppm,[2],≥ 80%
"Cc1cc(C2=NOC(c3cc(Cl)cc(Cl)c3)(C(F)(F)F)C2)ccc1C(=O)N(C)c1cncnc1 (stereo not drawn) [5-164, 4-[5-(3,5-Dichlorophenyl)-5-trifluoromethyl-4,5-dihydroisoxazole-3-yl]-2-methyl-N-methyl-N-(5-pyrimidinyl)benzoic acid amide]",pest or weed control at 10 ppm,[1],≥ 80%
same,pest or weed control at 10 ppm,[2],≥ 80%
"Cc1cc(C2=NOC(c3cc(Cl)cc(Cl)c3)(C(F)(F)F)C2)ccc1C(=O)N(C)C(=O)NC(=O)CCl (stereo not drawn) [4-006, N-Chloroacetyl-N′-[4-[5-(3,5-dichlorophenyl)-5-trifluoromethyl-4,5-dihydroisoxazole-3-yl]-2-methylbenzoyl]-N′-methyl urea]",pest or weed control at 100 ppm,[1],≥ 80%
same,pest or weed control at 100 ppm,[2],≥ 80%
"COC(=O)N(C(=O)c1ccc(C2=NOC(c3cc(Cl)cc(Cl)c3)(C(F)(F)F)C2)cc1C)c1ccc(C#N)cn1 (stereo not drawn) [5-071, Methyl N-(5-cyano-2-pyridyl)-N-[4-[5-(3,5-dichlorophenyl)-5-trifluoromethyl-4,5-dihydro-isoxazole-3-yl]-2-methylbenzoyl]carbamate]",pest or weed control at 10 ppm,[1],≥ 80%
same,pest or weed control at 10 ppm,[2],≥ 80%
"Cc1cc(C2=NOC(c3cc(Cl)cc(Cl)c3)(C(F)(F)F)C2)ccc1C(=O)N(C)C(N)=O (stereo not drawn) [4-003, N-Carbamoyl-4-[5-(3,5-dichlorophenyl)-5-trifluoromethyl-4,5-dihydroisoxazole-3-yl]-2-methyl-N-methyl benzoic acid amide]",pest or weed control at 100 ppm,[1],≥ 80%
same,pest or weed control at 100 ppm,[2],≥ 80%
"CON=CNC(=O)c1ccc(C2=NOC(c3cc(Cl)cc(C(F)(F)F)c3)(C(F)(F)F)C2)cc1C (stereo not drawn) [6-037, 4-[5-(3-Chloro-5-trifluoromethylphenyl)-5-trifluoromethyl-4,5-dihydroisoxazole-3-yl]-N-(methoxyiminomethyl)-2-methyl benzoic acid amide]",pest or weed control at 10 ppm,[1],≥ 80%
same,pest or weed control at 10 ppm,[2],≥ 80%
"Cc1cc(C2=NOC(c3cc(Cl)cc(Cl)c3)(C(F)(F)F)C2)ccc1C(=O)N(C)c1cccc(Br)n1 (stereo not drawn) [5-075, N-(6-Bromo-2-pyridyl)-4-[5-(3,5-dichlorophenyl)-5-trifluoromethyl-4,5-dihydro-isoxazole-3-yl]-N-methyl-2-methyl benzoic acid amide]",pest or weed control at 10 ppm,[1],≥ 80%
same,pest or weed control at 10 ppm,[2],≥ 80%
"CON=CN(C)C(=O)c1ccc(C2=NOC(c3cc(Cl)cc(Cl)c3)(C(F)(F)F)C2)cc1C (stereo not drawn) [7-002, 4-[5-(3,5-Dichlorophenyl)-5-trifluoromethyl-4,5-dihydroisoxazole-3-yl]-N-(methoxyiminomethyl)-N-methyl-2-methylbenzoic acid amide]",pest or weed control at 10 ppm,[1],≥ 80%
same,pest or weed control at 10 ppm,[2],≥ 80%
"COC(=O)N(C(=O)c1ccc(C2=NOC(c3cc(Cl)cc(Cl)c3)(C(F)(F)F)C2)cc1C)c1ncccn1 (stereo not drawn) [5-014, Methyl N-[4-[5-(3,5-dichlorophenyl)-5-trifluoromethyl-4,5-dihydroisoxazole-3-yl]-2-methylbenzoyl]-N-(2-pyrimidinyl)carbamate]",pest or weed control at 100 ppm,[1],≥ 80%
same,pest or weed control at 100 ppm,[2],≥ 80%
"CON=CNC(=O)c1ccc(C2=NOC(c3cc(Cl)cc(Cl)c3)(C(F)(F)F)C2)cc1CN(C)C (stereo not drawn) [6-032, 4-[5-(3,5-Dichlorophenyl)-5-trifluoromethyl-4,5-dihydroisoxazole-3-yl]-2-(dimethylaminomethyl)-N-(methoxyiminomethyl)benzoic acid amide]",pest or weed control at 500 ppm,[1],≥ 80%
"COC(=O)NC(=O)c1c(C)cc(C2=NOC(c3cc(Cl)cc(Cl)c3)(C(F)(F)F)C2)cc1I (stereo not drawn) [2-019, Methyl N-[4-[5-(3,5-dichlorophenyl)-5-trifluoromethyl-4,5-dihydroisoxazole-3-yl]-6-iodo-2-methylbenzoyl]carbamate]",pest or weed control at 500 ppm,[1],≥ 80%
"CCN(C(=O)NC(=O)c1ccc(C2=NOC(c3cc(Cl)cc(Cl)c3)(C(F)(F)F)C2)cc1C)C(=O)OC (stereo not drawn) [4-011, N-[4-[5-(3,5-dichlorophenyl)-5-trifluoromethyl-4,5-dihydro-isoxazole-3-yl]-2-methylbenzoyl]-N′-ethyl-N′-methoxycarbonyl urea]",pest or weed control at 10 ppm,[1],≥ 80%
same,pest or weed control at 10 ppm,[2],≥ 80%
"Cc1cc(C2=NOC(c3cc(Cl)cc(Cl)c3)(C(F)(F)F)C2)ccc1C(=O)N(C)C1(Cl)N=CC=CN1 (stereo not drawn) [5-172, N-(2-Chloro-2-pyrimidinyl)-4-[5-(3,5-dichlorophenyl)-5-trifluoromethyl-4,5-dihydro-isoxazole-3-yl]-N-methyl-2-methyl benzoic acid amide]",pest or weed control at 500 ppm,[1],≥ 80%
same,pest or weed control at 10 ppm,[2],≥ 80%
"CON=CNC(=O)c1ccc(C2=NOC(c3cc(Cl)cc(Cl)c3)(C(F)(F)F)C2)cc1NC(C)=O (stereo not drawn) [6-033, 2-Acetylamino-4-[5-(3,5-dichlorophenyl)-5-trifluoromethyl-4,5-dihydroisoxazole-3-yl]-N-(methoxyiminomethyl)benzoic acid amide]",pest or weed control at 10 ppm,[1],≥ 80%
same,pest or weed control at 10 ppm,[2],≥ 80%
"COC(=O)N(C(=O)c1ccc(C2=NOC(c3cc(Cl)cc(Cl)c3)(C(F)(F)F)C2)cc1C)C1CCCO1 (stereo not drawn) [3-077, Methyl N-[4-[5-(3,5-dichlorophenyl)-5-trifluoromethyl-4,5-dihydro-isoxazole-3-yl]-2-methylbenzoyl]-N-(2-tetrahydrofuranyl)carbamate]",pest or weed control at 10 ppm,[1],≥ 80%
same,pest or weed control at 10 ppm,[2],≥ 80%
"COC(=O)N(C(=O)c1ccc(C2=NOC(c3cc(Cl)cc(Cl)c3)(C(F)(F)F)C2)cc1C)c1cncnc1 (stereo not drawn) [5-169, Methyl N-[4-[5-(3,5-dichlorophenyl)-5-trifluoromethyl-4,5-dihydro-isoxazole-3-yl]-2-methylbenzoyl]-N-(5-pyrimidinyl)carbamate]",pest or weed control at 10 ppm,[1],≥ 80%
same,pest or weed control at 10 ppm,[2],≥ 80%
"COCc1cc(C2=NOC(c3cc(Cl)cc(Cl)c3)(C(F)(F)F)C2)ccc1C(=O)NC(=N)OC (stereo not drawn) [6-031, 4-[5-(3,5-Dichlorophenyl)-5-trifluoromethyl-4,5-dihydroisoxazole-3-yl]-N-(methoxy-iminomethyl)-2-methoxymethyl benzoic acid amide]",pest or weed control at 10 ppm,[1],≥ 80%
same,pest or weed control at 10 ppm,[2],≥ 80%
"CC(=O)N(C(=O)c1ccc(C2=NOC(c3cc(Cl)cc(Cl)c3)(C(F)(F)F)C2)cc1C)c1cccc(Cl)n1 (stereo not drawn) [5-073, N-Acetyl-N-(6-chloro-2-pyridyl)-4-[5-(3,5-dichlorophenyl)-5-trifluoromethyl-4,5-dihydroisoxazole-3-yl]-2-methyl benzoic acid amide]",pest or weed control at 10 ppm,[1],≥ 80%
same,pest or weed control at 10 ppm,[2],≥ 80%
